Data reported in paper PMC5071857, “A unique peptide deformylase platform to rationally design and challenge novel active compounds” (Scientific Reports, 2016).
Read-outs that look alike come from different tables or passages of the source.

Key:
[1] = molecular target: T1, EcPDF (Escherichia coli, UniProt P0A6K3); test: PDF inhibition, formate dehydrogenase-coupled spectrophotometric assay (EcPDF); assay type: biochemical
T1 construct: made in house
Description: (§1) The formate released by the deformylation reaction is used by FDH to convert NAD in NADH, the production of which being measured over time at 340 nm and controlled temperature (37 °C). The 200 μL reaction mixture contained 50 mM HEPES-NaOH pH7.5, 12 mM NAD^+, 4.5 U/mL FDH, 1 mM NiCl2 and PDF enzyme (either 40 nM SaPDF or 10 nM EcPDF or 100 nM AtPDF1B) previously diluted in presence of 0.1 mg/mL BSA. The reaction was started by addition of 1–6 mM Fo-Met-Ala-Ser. Kinetics parameters (kcat, Km) were derived from iterative non-linear least square fits using the Michaelis-menten equation based on the experimental data (Sigma-Plot, Kinetics module).
(§2) 1/KI*app is the slope of the v0/vi curve in function of compound concentration, where v0 and vi are the initial reaction rates in absence and presence of compound, respectively.
(§3) Determination of KI values was performed with a slightly modified protocol: reaction was started by addition of enzyme instead of Fo-Met-Ala-Ser, the latter being directly added to the mixture containing increasing concentrations of each compound. No pre-incubation of enzyme in presence of compound was done. 1/KI is the slope of the v0/vi curve in function of compound concentration, where v0 and vi are the initial reaction rates in absence and presence of compound respectively.

[2] = system: E. coli AG100A (AcrAB- derivative); test: MIC by microdilution, E. coli AG100A; assay type: cell-based; conditions: for MIC: Escherichia coli, 18 h, read-out: MIC AG100A; for MIC AG100A: with PMBN at 1/5 of its MIC, 18 h at 37 °C, average of three assays
From the text: (§4) Two E. coli strains, one B. subtilis strain, one S. aureus strain, one E. faecalis strain, one S. agalactiae strain and three Enterobacter aerogenes strains previously described were used. Briefly, AG100 was an E. coli wild type strain and AG100A its acrAB^- derivative. EA289 was a Kan^s derivative of an E. aerogenes multi-drug resistant (MDR) clinical isolate overexpressing AcrAB-TolC efflux pumps, and EA294 and EA298 its acrAB^- and tolC^- derivatives respectively. Strains were routinely grown at 37 °C on Luria-Bertani (LB) agar or in Mueller-Hinton II broth (MH), supplemented with kanamycine (50 μg.mL^−1) for AG100A, EA294 and EA298.
(§5) MIC values of antibiotics were determined by the microdilution method in liquid MH media in microplates in the absence or presence of chemosensitizers/modulators (e.g. PMBN, PAβN), as previously described. Permeabilization, blocking of efflux pumps, and isolates with different levels of porin or efflux expression were used to assess the involvement of the membrane barrier in antibiotic activity.
(§6) Susceptibilities were determined in 96-wells microplates with an inoculum of 2 × 10^5 cfu in 200 μL of MH broth containing two-fold serial dilutions of each antibiotics or compounds. Molecules were tested alone or in combination with other molecules in equimolar ratio. MICs were realized in the absence and in the presence of a membrane permeabilizer, the polymyxine B nonapeptide (PMBN) used at 51.2 mg/L (1/5 or 1/10 of its direct MIC previously determined). Actinonin and ciprofloxacin were used as internal antibiotic reference. […] Each test was systematically performed in triplicate. The average of three independent assays is presented in μg/mL in the respective tables.

[3] = system: E. coli AG100; test: MIC by microdilution, E. coli AG100; assay type: cell-based; conditions: 18 h at 37 °C, average of three assays; for MIC: Escherichia coli, AG100, without PMBN; for MIC AG100: with PMBN at 1/5 of its MIC
From the text: as §4, §5, §6

[4] = system: S. aureus SA113; test: MIC, S. aureus SA113; assay type: cell-based; conditions: Staphylococcus aureus
From the text: as §4, §5, §6

[5] = system: E. faecalis EFA 103.214; test: MIC, E. faecalis EFA 103.214; assay type: cell-based
From the text: as §4, §5, §6

[6] = molecular target: T2, AtPDF1B (Arabidopsis thaliana, UniProt Q9FUZ2); test: PDF inhibition, formate dehydrogenase-coupled spectrophotometric assay (AtPDF1B); assay type: biochemical; conditions: 100 nM AtPDF1B; for IC50: 2 mM Fo-Met-Ala-Ser, 10 min pre-incubation at 37 °C; for Ki: PDFI pre-incubated with enzyme 10 min at 37 °C, read-out: AtPDF1B KI*app
T2 construct: made in house
T2 sequence (Q9FUZ2 83-273): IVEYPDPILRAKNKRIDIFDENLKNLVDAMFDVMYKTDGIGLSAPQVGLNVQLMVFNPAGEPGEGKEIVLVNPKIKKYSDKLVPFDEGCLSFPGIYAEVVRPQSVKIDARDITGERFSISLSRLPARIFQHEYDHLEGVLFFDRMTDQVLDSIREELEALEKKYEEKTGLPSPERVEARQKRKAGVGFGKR
Description: as §1, with “Enzymatic activity was measured by a spectrophotometric assay where peptide deformylase activity is coupled to that of formate dehydrogenase. The formate” for “The formate”
as §2, §3

[7] = molecular target: T3, SaPDF (Streptococcus agalactiae serotype III, UniProt Q8E378, S2A); test: biochemical; conditions: SaPDF KI*app, PDFI pre-incubated with enzyme 10 min at 37 °C, started by 2 mM Fo-Met-Ala-Ser; 40 nM SaPDF
T3 construct: the recombinant protein contains all residues of the 204 amino acids mature protein; made in house; host or cells: E. coli Rosetta 2(DE3)pLysS
T3 sequence (Q8E378 whole entry S2A): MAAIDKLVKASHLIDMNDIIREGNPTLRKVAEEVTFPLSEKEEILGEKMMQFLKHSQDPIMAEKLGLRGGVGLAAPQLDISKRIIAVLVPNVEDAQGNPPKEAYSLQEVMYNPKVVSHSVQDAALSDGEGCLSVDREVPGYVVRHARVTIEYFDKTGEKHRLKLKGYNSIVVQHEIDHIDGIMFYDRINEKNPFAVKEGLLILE

[8] = molecular target: T3, SaPDF; test: biochemical; conditions: for Ki: SaPDF KI, no pre-incubation, assay initiated by addition of enzyme, 40 nM SaPDF, 37 °C; for SaPDF KI/KI*app: enhancement potency (slow tight-binding)
Description: as §1, with “Enzymatic activity was measured by a spectrophotometric assay where peptide deformylase activity is coupled to that of formate dehydrogenase. The formate” for “The formate”
as §2, §3

[9] = system: E. aerogenes Ea289, MDR strain; test: MIC by microdilution, E. aerogenes Ea289; assay type: cell-based, Enterobacter aerogenes; conditions: for MIC Ea289: +PMBN at 1/5 of its MIC, average of three assays; for MIC: Klebsiella aerogenes, 18 h, read-out: MIC Ea289
From the text: as §4, §5, §6

[10] = system: E. aerogenes Ea298, Ea289 derivative tolC-; test: MIC by microdilution, E. aerogenes Ea298; assay type: cell-based, Enterobacter aerogenes; conditions: for MIC Ea298: +PMBN at 1/5 of its MIC, average of three assays; for MIC: Klebsiella aerogenes, 18 h, read-out: MIC Ea298
From the text: as §4, §5, §6

[11] = system: E. aerogenes Ea294, Ea289 derivative AcrAB-; test: MIC by microdilution, E. aerogenes Ea294; assay type: cell-based, Enterobacter aerogenes; conditions: for MIC Ea294: +PMBN at 1/5 of its MIC, average of three assays; for MIC: Klebsiella aerogenes, 18 h, read-out: MIC Ea294
From the text: as §4, §5, §6

[12] = 10 nM EcPDF, 2 mM Fo-Met-Ala-Ser, 10 min pre-incubation at 37 °C, read-out: IC50 EcPDF
[13] = Enterococcus faecalis, EFA103.214, read-out: MIC E. faecalis EFA 103.214
[14] = EcPDF KI*app, PDFI pre-incubated with enzyme 10 min at 37 °C, started by 2 mM Fo-Met-Ala-Ser, 10 nM EcPDF
[15] = PDFI pre-incubated with enzyme 10 min at 37 °C, started by 2 mM Fo-Met-Ala-Ser, 10 nM EcPDF, read-out: EcPDF KI*app

T1 sequence (P0A6K3 whole entry): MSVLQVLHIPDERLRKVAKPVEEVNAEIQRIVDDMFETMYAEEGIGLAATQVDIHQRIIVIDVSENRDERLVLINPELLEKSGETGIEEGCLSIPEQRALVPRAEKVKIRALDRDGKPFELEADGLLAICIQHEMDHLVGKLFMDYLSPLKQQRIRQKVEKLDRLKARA

Row | SMILES | IC50 [1, 12] | MIC [2] | MIC AG100A [2] | MIC [3] | MIC AG100 [3] | MIC [4] | MIC [5, 13] | Ki [7] | IC50 [8] | further results
1 | CCCCC(CC(=O)NO)c1nc(-c2ccc([N+](=O)[O-])cc2)no1 (stereo not shown) [AT001] | 160 nM | > 64 µg/mL | 32 µg/mL | > 64 µg/mL | >64 µg/mL |  |  |  |  | 
2 | CCCC[C@H](CC(=O)NO)c1nc(-c2ccccc2)co1 [AT003] | 190 nM | > 64 µg/mL | 16 µg/mL | > 64 µg/mL | 64 µg/mL | > 64 µg/mL | > 64 µg/mL |  |  | 
3 | CCCCC(CC(=O)NO)c1nc(C(=O)OCC)co1 (stereo not shown) [AT004] | 110 nM | > 64 µg/mL | 32 µg/mL | > 64 µg/mL | >64 µg/mL | > 64 µg/mL | > 64 µg/mL |  |  | 
4 | CCCCC(CC(=O)NO)c1nc(-c2ccccc2)no1 (stereo not shown) [AT006] | 155 nM | > 64 µg/mL | 32 µg/mL | > 64 µg/mL | 64 µg/mL | > 64 µg/mL | > 64 µg/mL |  |  | 
5 | CCCCC(CC(=O)NO)c1nc(Cc2ccc(C)cc2)no1 (stereo not shown) [AT012] |  | 64 µg/mL | 8 µg/mL | > 64 µg/mL | 32 µg/mL | > 64 µg/mL | > 64 µg/mL | 400 ± 35 nM | 67 ± 5 nM | IC50 [6]: 460 ± 22 nM; Ki ([6]; started by 2 mM Fo-Met-Ala-Ser): 625 ± 30 nM; IC50 [1]: 27 ± 3 nM; Ki [1, 14]: 70 ± 8 nM
6 | CCCCC(CC(=O)NO)c1nc(Cc2ccc(-c3ccccc3)cc2)no1 (stereo not shown) [AT014] |  | > 64 µg/mL | 64 µg/mL | > 64 µg/mL | 64 µg/mL | > 64 µg/mL | > 64 µg/mL | 65 ± 10 nM | 16 ± 2 nM | IC50 [6]: 550 ± 25 nM; Ki ([6]; started by 2 mM Fo-Met-Ala-Ser): 909 ± 32 nM; Ki [8]: 84 ± 6 nM; SaPDF KI/KI*app [8]: 1; IC50 [1]: 25 ± 4 nM; Ki [1, 14]: 66 ± 3 nM
7 | CCCCC(CC(=O)NO)c1nc(Cc2ccc3c(c2)OCO3)no1 (stereo not shown) [AT016] | 10 ± 1 nM | 64 µg/mL | 8 µg/mL | > 64 µg/mL | 64 µg/mL | > 64 µg/mL |  | 55 ± 5 nM | 10 ± 2 nM | Ki [8]: 67 ± 7 nM; SaPDF KI/KI*app [8]: 1; Ki [1, 15]: 26 ± 5 nM; EcPDF KI/KI*app ([1]; enhancement potency (slow tight-binding)): 1; Ki ([1]; no pre-incubation, assay initiated by addition of enzyme, 10 nM EcPDF, 37 °C, read-out: EcPDF KI): 25 ± 3 nM; MIC ([5]; Enterococcus faecalis, EFA103.214; read-out: MIC E. faecalis EFA 103.214): > 64 µg/mL
8 | CCCCC(CC(=O)NO)c1nc(Cc2nc3ccccc3s2)no1 (stereo not shown) [AT017] | 30 ± 8 nM | 64 µg/mL | 8 µg/mL | > 64 µg/mL | 64 µg/mL | > 64 µg/mL | > 64 µg/mL | 85 ± 8 nM | 23 ± 4 nM | Ki [1, 15]: 41 ± 3 nM
9 | CCCC[C@H](CC(=O)NO)c1nc(Cc2ccc(C(=O)O)cc2)no1 [AT021] |  |  |  |  |  |  |  | 200 ± 10 nM | 211 ± 10 nM | IC50 [6]: 8200 ± 1000 nM; Ki [6]: ~10000 nM; IC50 [1]: 75 ± 2 nM; Ki [1, 14]: 76 ± 5 nM
10 | CC(C)(O/N=C(\C(=O)N[C@@H]1C(=O)N2C(C(=O)[O-])=C(C[n+]3ccccc3)CS[C@H]12)c1csc(N)n1)C(=O)O [Ceftazidim, ceftazidime, reference compound] |  |  |  |  |  |  |  |  |  | MIC Ea289 [9]: 64 µg/mL; MIC [9]: > 128 µg/mL; MIC Ea298 [10]: 64 µg/mL; MIC [10]: > 128 µg/mL; MIC Ea294 [11]: 64 µg/mL; MIC [11]: > 128 µg/mL
11 | O=C(N[C@H](CO)[C@H](O)c1ccc([N+](=O)[O-])cc1)C(Cl)Cl [Chloramphenicol, chloramphenicol, reference compound] |  |  |  |  |  |  |  |  |  | MIC Ea289 [9]: 8 µg/mL; MIC [9]: > 128 µg/mL; MIC Ea298 [10]: 4 µg/mL; MIC [10]: 32 µg/mL; MIC Ea294 [11]: 4 µg/mL; MIC [11]: 32 µg/mL
